Biological target: C-terminal-binding protein 2 (Homo sapiens, UniProt P56545)
Experiment: CtBP2 ITC
Conditions: pH 8.5
Source text: Five mM MTOB was utilized for competitive displacement assays.

- Kd: 2960 µM
SMILES: CSCCC(=O)C(=O)O [4-Methylthio 2-oxobutyric acid (MTOB)]

Source: BindingDB's records for doi:10.1021/cb500820b (University of Massachusetts Medical School, 2015)
